For the assay, the target named is T1, Recombinant Apaf-1 produced in insect cells (rApaf-1) (Homo sapiens, UniProt O14727).
T1 construct: made in house; host or cells: insect cells (Apaf-1); E. coli (procaspase-9); cytochrome c purchased from Sigma
T1 sequence (O14727 1-1248): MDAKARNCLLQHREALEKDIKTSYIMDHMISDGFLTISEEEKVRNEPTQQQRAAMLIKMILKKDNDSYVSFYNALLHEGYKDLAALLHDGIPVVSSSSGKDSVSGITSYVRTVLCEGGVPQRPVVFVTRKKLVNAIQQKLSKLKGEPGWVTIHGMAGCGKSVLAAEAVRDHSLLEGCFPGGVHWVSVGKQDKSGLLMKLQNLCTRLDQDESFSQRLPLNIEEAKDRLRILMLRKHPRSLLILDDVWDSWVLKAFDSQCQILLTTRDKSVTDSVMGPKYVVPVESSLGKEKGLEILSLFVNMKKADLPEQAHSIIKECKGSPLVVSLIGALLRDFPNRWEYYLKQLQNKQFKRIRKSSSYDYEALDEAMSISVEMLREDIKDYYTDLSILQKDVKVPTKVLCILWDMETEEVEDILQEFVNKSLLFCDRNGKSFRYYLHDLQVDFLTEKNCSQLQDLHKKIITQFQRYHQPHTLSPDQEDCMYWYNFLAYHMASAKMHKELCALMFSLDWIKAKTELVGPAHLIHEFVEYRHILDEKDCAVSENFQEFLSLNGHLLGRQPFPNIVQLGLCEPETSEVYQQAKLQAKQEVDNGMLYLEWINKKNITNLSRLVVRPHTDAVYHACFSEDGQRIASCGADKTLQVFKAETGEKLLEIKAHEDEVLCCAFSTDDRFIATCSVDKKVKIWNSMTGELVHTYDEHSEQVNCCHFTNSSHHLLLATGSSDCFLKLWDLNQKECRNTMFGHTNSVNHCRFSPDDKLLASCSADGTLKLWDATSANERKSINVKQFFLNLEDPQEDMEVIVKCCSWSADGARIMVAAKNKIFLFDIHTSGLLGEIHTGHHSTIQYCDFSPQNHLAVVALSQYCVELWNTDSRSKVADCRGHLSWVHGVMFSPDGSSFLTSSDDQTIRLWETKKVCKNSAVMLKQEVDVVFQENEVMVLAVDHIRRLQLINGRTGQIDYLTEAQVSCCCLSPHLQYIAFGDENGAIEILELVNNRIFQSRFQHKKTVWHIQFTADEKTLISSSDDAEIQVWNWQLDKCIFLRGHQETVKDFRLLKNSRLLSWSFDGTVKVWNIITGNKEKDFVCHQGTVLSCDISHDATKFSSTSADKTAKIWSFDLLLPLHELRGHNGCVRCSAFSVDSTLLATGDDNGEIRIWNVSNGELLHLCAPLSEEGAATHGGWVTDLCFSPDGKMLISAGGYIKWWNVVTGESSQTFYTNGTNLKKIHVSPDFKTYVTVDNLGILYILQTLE
Description: In vitro apoptosome formation inhibition assay. It is filed as biochemical. The settings on record: compound at 10 μM; rApaf-1 40 nM, dATP/Mg 100 μM, horse cytochrome c 0.1 μM, rprocaspase-9 0.1 μM; caspase-9 substrate Ac-LEDH-afc, afc release at 37° C. The procedure:
Recombinant Apaf-1 produced in insect cells (rApaf-1) was incubated in the presence (at a concentration of 10 μM) or absence (as control) of the compounds to be evaluated in the assay buffer (20 mM Hepes-KOH pH 7.5, 10 mM KCl, 1.5 mM MgCl2, 1 mM EDTA, 1 mM EGTA, 1 mM DTT, 0.1 mM PMSF) for 15 minutes at 30° C. The final rApaf-1 concentration was 40 nM. dATP/Mg (Sigma) and purified horse cytochrome c (Sigma) were then added achieving final concentrations of 100 μM and 0.1 μM, respectively. It was incubated for 60 minutes at 30° C. and recombinant procaspase-9 produced in E. coli (rprocaspase-9, final concentration 0.1 μM) was then added and it was incubated for 10 minutes at 30° C. before adding the caspase-9 fluorogenic substrate Ac-LEDH-afc (final concentration 50 μM). The total assay volume was 200 μL. The caspase activity was continuously monitored by means of the afc release at 37° C. in a Wallac 1420 Workstation (λexc=390 nm, λem=510 nm).
The activity values of some compounds described in the examples are indicated in the following table expressed as the percentage of Apaf-1 inhibition.

The inhibition is the change of the read-out against control, counted positive when it falls. Take `O=C(O)CN(CCc1ccc(Cl)cc1Cl)C(=O)CC1C(=O)N(CCc2ccc(Cl)cc2Cl)CC(=O)N1CCC(c1ccccc1)c1ccccc1` (stereo not shown) [Ib.1.2, 2-(N-(2,4-dichlorophenethyl)-2-(4-(2,4-dichlorophenethyl)-1-(3,3-diphenylpropyl)-3,6-dioxopiperazin-2-yl)acetamido) acetic acid]: the inhibition at 10 µM came out at 72%.
The result for `O=C(O)CN(CCc1ccc(Cl)cc1Cl)C(=O)CC1C(=O)N(CCc2ccc(Cl)cc2Cl)CC(=O)N1CCc1c[nH]c2ccccc12` (stereo not shown) [Ib.3.2, 2-(2-(1-(2-(1H-indol-3-yl)ethyl)-4-(2,4-dichlorophenethyl)-3,6-dioxopiperazin-2-yl)-N-(2,4-dichlorophenethyl)acetamido) acetic acid] reads 48%.
Regarding `NC(=O)CN(CCc1ccccn1)C(=O)CC1C(=O)N(CCc2ccc(Cl)cc2Cl)CC(=O)N1CCC(c1ccccc1)c1ccccc1` (stereo not shown) [I.1.16, N-(2-amino-2-oxoethyl)-2-(4-(2,4-dichlorophenethyl)-1-(3,3-diphenylpropyl)-3,6-dioxopiperazin-2-yl)-N-(2-(pyridin-2-yl)ethyl)acetamide], the inhibition at 10 µM came to 46%.
Regarding `NC(=O)CN(CCc1ccc(Cl)cc1Cl)C(=O)CC1C(=O)N(CCc2ccc(Cl)cc2Cl)CC(=O)N1CCc1ccc(-c2ccccc2)cc1` (stereo not shown) [Ia.6.2, 2-(1-(2-([1,1′-biphenyl]-4-yl)ethyl)-4-(2,4-dichlorophenethyl)-3,6-dioxopiperazin-2-yl)-N-(2-amino-2-oxoethyl)-N-(2,4-dichlorophenethyl)acetamide], the inhibition at 10 µM is 29%.
To `O=C(O)CN(CCc1ccc(Cl)cc1Cl)C(=O)CC1C(=O)N(CCc2ccc(Cl)cc2Cl)CC(=O)N1Cc1ccc(F)cc1` (stereo not shown) [Ib.2.2, 2-(N-(2,4-dichlorophenethyl)-2-(4-(2,4-dichlorophenethyl)-1-(4-fluorobenzyl)-3,6-dioxopiperazin-2-yl)acetamido) acetic acid] belongs 28%.
To `NCCCCC(NC(=O)CN(CCc1ccc(Cl)cc1Cl)C(=O)CC1C(=O)N(CCc2ccc(Cl)cc2Cl)CC(=O)N1CCC(c1ccccc1)c1ccccc1)C(N)=O` (stereo not shown) [If.1.2, 6-amino-2-(2-(N-(2,4-dichlorophenethyl)-2-(4-(2,4-dichlorophenethyl)-1-(3,3-diphenylpropyl)-3,6-dioxopiperazin-2-yl)acetamido)acetamido)hexanamide] belongs 80%.
Turning to `COC(=O)CN(CCc1ccc(Cl)cc1Cl)C(=O)CC1C(=O)N(CCc2ccc(Cl)cc2Cl)CC(=O)N1CCc1c[nH]c2ccc(OC)cc12` (stereo not shown) [Ic.5.2, Methyl 2-(N-(2,4-dichlorophenethyl)-2-(4-(2,4-dichlorophenethyl)-1-(2-(5-methoxy-1H-indol-3-yl)ethyl)-3,6-dioxopiperazin-2-yl)acetamido)acetate], the inhibition at 10 µM came out at 23%.
On to `COc1ccc2[nH]cc(CCN3C(=O)CN(CCc4ccc(Cl)cc4Cl)C(=O)C3CC(=O)NCCc3ccc(Cl)cc3Cl)c2c1` (stereo not shown) [Id.5.2, N-(2,4-dichlorophenethyl)-2-(4-(2,4-dichlorophenethyl)-1-(2-(5-methoxy-1H-indol-3-yl)ethyl)-3,6-dioxopiperazin-2-yl)acetamide], for which the inhibition at 10 µM amounted to 40%.
The result for `COC(=O)CN(CCc1ccc(Cl)cc1Cl)C(=O)CC1C(=O)N(CCc2ccc(Cl)cc2Cl)CC(=O)N1CCc1c[nH]c2ccccc12` (stereo not shown) [Ic.3.2, Methyl 2-(2-(1-(2-(1H-indol-3-yl)ethyl)-4-(2,4-dichlorophenethyl)-3,6-dioxopiperazin-2-yl)-N-(2,4-dichlorophenethyl)acetamido)acetate] reads 29%; that for `CCC(C)N(CC(N)=O)C(=O)CC1C(=O)N(CCc2ccc(Cl)cc2Cl)CC(=O)N1CCC(c1ccccc1)c1ccccc1` (stereo not shown) [I.1.20, N-(2-amino-2-oxoethyl)-N-(sec-butyl)-2-(4-(2,4-dichlorophenethyl)-1-(3,3-diphenylpropyl)-3,6-dioxopiperazin-2-yl)acetamide], 36%.

(Values after patent US9040701B2, “Apaf-1 inhibitor compounds” (LABORATORIOS SALVAT, S.A., priority 2009, dated 2015).)
